Laboratory results as given in ChEMBL document CHEMBL1135753, “Characterization of orally active nonpeptide vasopressin V(2) receptor agonist. Synthesis and biological evaluation of both the (5R)- and (5S)-enantioisomers of 2-[1-(2-Chloro-4-pyrrolidin-1-yl-benzoyl)-2,3,4,5-tetrahydro-1H-1-benzazepin- 5-yl]-N-isopropylacetamide” (J Med Chem, 2002).

How the values were obtained:
[1] = molecular target: T1, Vasopressin V2 receptor (Homo sapiens, UniProt P30518); experiment: Percentage of maximal cAMP accumulation at a concentration of 10e-4 M was done in HeLa cells expressing the human Vasopressin V2 receptor; format: functional, cell-based
T1 sequence (P30518 whole entry): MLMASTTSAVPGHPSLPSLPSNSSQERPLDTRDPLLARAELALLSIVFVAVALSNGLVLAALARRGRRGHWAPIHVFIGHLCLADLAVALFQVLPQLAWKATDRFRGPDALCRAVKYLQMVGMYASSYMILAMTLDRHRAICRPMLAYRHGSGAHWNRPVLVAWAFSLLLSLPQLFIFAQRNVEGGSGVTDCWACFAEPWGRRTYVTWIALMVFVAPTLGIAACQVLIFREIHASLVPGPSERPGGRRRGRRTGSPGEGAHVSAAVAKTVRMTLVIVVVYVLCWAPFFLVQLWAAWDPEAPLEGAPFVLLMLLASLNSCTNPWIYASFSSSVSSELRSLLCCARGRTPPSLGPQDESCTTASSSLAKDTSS

[2] = molecular target: Vasopressin V2 receptor (Rattus norvegicus, UniProt Q00788); experiment: Binding affinity against Vasopressin V2 receptor was determined in Brattleboro rats
Vasopressin V2 receptor (Rattus norvegicus, UniProt Q00788), sequence (Q00788 whole entry): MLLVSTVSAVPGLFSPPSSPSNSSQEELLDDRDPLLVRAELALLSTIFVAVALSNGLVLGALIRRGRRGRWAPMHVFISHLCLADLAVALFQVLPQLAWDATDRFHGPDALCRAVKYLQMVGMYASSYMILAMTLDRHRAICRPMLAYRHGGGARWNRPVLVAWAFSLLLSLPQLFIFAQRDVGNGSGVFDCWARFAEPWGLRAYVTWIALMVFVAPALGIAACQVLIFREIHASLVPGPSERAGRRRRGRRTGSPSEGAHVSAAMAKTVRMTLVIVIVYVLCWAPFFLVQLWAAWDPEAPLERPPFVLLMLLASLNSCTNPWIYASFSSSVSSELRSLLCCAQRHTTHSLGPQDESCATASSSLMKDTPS

[3] = molecular target: T1, Vasopressin V2 receptor; experiment: Binding affinity against human Vasopressin V2 receptor expressed in HeLa cells was determined; format: cell-based

Structure (SMILES) | Accumulation [1] [%] | IC50 [2] [µM] | IC50 [3] [µM]
CC(C)NC(=O)C[C@@H]1CCCN(C(=O)c2ccc(N3CCCC3)cc2Cl)c2ccccc21 | 22 | 0.39 | 0.98
CC(C)NC(=O)C[C@H]1CCCN(C(=O)c2ccc(N3CCCC3)cc2Cl)c2ccccc21 |  | 0.23 | 0.33
